The source of these data is patent publication US20250197356A1, “METHOD FOR SYNTHESIZING NUCIFERINE OR DERIVATIVE THEREOF, DERIVATIVE OF NUCIFERINE AND USE THEREOF” (HUAQIAO UNIVERSITY, priority 2022, published 2025).

Like-named read-outs stand apart in the source and are kept apart here.

The conditions of data set [1]: cited from earlier work.
Data set [2] concerns hyperlipidemia rats. As to the kind of experiment: Liver and kidney indexes in high-fat diet hyperlipidemia rats. The data set is classed as in vivo, SD rats. Particulars: 20 mg/(kg d) by gastric gavage, 4 weeks, x ± s, n = 9. The source says:
(§1) Animals: 54 SPF-grade SD rats, weighing 120±10 g, provided by Laboratory Animal Business Department, Shanghai Family Planning Research Institute, China, Animal license number: SCXK(Shanghai)2018-0006.
(§2) Modeling scheme: 54 adult rats of 120±10 g were selected and fed adaptively for three days. They were then randomly divided to 6 groups, 9 animals for each group. They were blank control group, model group, positive control group, nuciferine group, and nuciferine structural modification group. The blank control group was fed with normal diet. […] The feeding and modeling time was 5 weeks.
(§3) Liver tissue sample collection: the rats were killed by dislocation, and the liver was taken out immediately after death, which was observed by naked eye to find out whether there was abnormal color and lesions, and was then rinsed with ice normal saline. The left lobe of the liver was quickly cut into small pieces and fixed in 10% formaldehyde overnight for sectioning. The tissue of the right lobe of the liver was quickly wrapped in tin box and stored at −80° C. for later use.

The test system of data set [3] is hyperlipidemia rats. The data set is described as follows: Serum biochemical indicators in high-fat diet hyperlipidemia rats. The settings on record: serum, 20 mg/(kg d) by gastric gavage, 4 weeks; for ALT (U/L) / AST (U/L) / Bun / Cr: x ± s, n = 9. In kind it is in vivo, SD rats.
Excerpt: as §1
(§4) Drug to be tested: Nuciferine purchased from Shanghai Aladdin Biochemical Technology Co., Ltd., China, and its derivatives (purity >99%) that were synthesized in the laboratory by the methods of Examples 2-7.
(§5) Other reagents: AST, ALT, TC, TG, NEFA, Bun, Cr, CAT, GSH-Px, GSH, MDA test kits, purchased from Nanjing Jiancheng Bioengineering Institute, China; HL and PL test kits, purchased from Jianglai Biotechnology Co., Ltd., China; experimental reagents such as anhydrous ethanol, xylene, isopropanol neutral gum, purchased from Sinopharm Chemical Reagent Co., Ltd., China; HE dye solution, DAB color development agent, and oil red O dye solution, purchased from KeyGEN Biotechnology Co., Ltd, China; Antibodies IL-6 and TNF-α, purchased from Abcam Limited.
as §2, with “weeks. Within 4 weeks after modeling, continuous administration was performed: the blank control group and model group were given 0.2 mL of distilled water by gastric gavage; the positive control group was administrated 20 mg/(kg d) of simvastatin; while the treatment group was administrated 20 mg/(kg d) of nuciferine or 20 mg/(kg d) of a derivative of nuciferine (compounds 6a-6f).” for “weeks.”
Blood sample collection: 24 h after the last gastric gavage administration, eyeballs were taken out and blood was drawn. Whole blood was collected in an EP tube, and centrifuged at 3000 r/min and 4° C. for 10 min, and the supernatant was collected and stored at −20° C. for blood biochemical indicator test.
(§6) Biochemical indicator determination: indicators AST, ALT, TC, TG, NEFA, Bun, Cr, CAT, GSH-Px, GSH, MDA, HL, PL were determined according to the instructions of the kits.

The test system of data set [4] is hyperlipidemia rats. The data set is described as follows: Liver tissue homogenate biochemical indicators in high-fat diet hyperlipidemia rats. Particulars: liver tissue, 20 mg/(kg d) by gastric gavage, 4 weeks, x ± s, n = 9. The data set is classed as in vivo, SD rats.
Excerpt: as §1, §4, §5
as §2, with “weeks. Within 4 weeks after modeling, continuous administration was performed: the blank control group and model group were given 0.2 mL of distilled water by gastric gavage; the positive control group was administrated 20 mg/(kg d) of simvastatin; while the treatment group was administrated 20 mg/(kg d) of nuciferine or 20 mg/(kg d) of a derivative of nuciferine (compounds 6a-6f).” for “weeks.”
as §3
Preparation of 10% liver homogenate: the liver wrapped in tin box and stored in the ultra-low temperature freezer at −80° C. was taken out, and quickly placed on an ice box. 0.2 g of liver tissue was accurately taken, and ice normal saline with a volume 9 times that of the liver issue was added thereto. 10% tissue homogenate was formed by grounding and mixing, and then centrifuged at 3000 r/min and 4° C. for 10 min. The supernatant was collected for later use.
as §6

[5] abbreviates: TCMSP database, screening threshold OB ≥30%.

`COc1cc(-c2oc3cc(O)cc(O)c3c(=O)c2O)ccc1O` [isorhamnetin]: the “OB/% (oral bioavailability)” value in data set [1] (setting [5]) is given as 49.6%.

`Oc1cc(O)c2c(c1)O[C@@H](c1ccc(O)c(O)c1)[C@@H](O)C2` [ent-Epicatechin]: the “OB/% (oral bioavailability)” value in data set [1] (po) is given as 48.96%.

Take o-Nornuciferine: the “OB/% (oral bioavailability)” value in data set [1] (setting [5]) is reported as 33.52%.

As for `CC(C)=CCC[C@@H](C)[C@H]1CC[C@@]2(C)[C@@H]3CC[C@H]4C(C)(C)[C@@H](O)CC[C@@]45C[C@@]35CC[C@]12C` [Cycloartenol], the “OB/% (oral bioavailability)” value in data set [1] (setting [5]) was 38.69%.

In the case of `COc1cc2c3c(c1OC)-c1ccccc1CC3N(C(=O)c1ccccc1C)CC2` (stereo not drawn) [Compound 6d, o-Methylbenzoylnuciferine], in data set [2], the “Kidney index (%)” value came out at 0.68 ± 0.04 % and the “Liver index (%)” value was 4.58 ± 0.24 %. Besides, in data set [3], the “LDL-C” value worked out at 0.68 ± 0.15 mmol/L, the “TC” value stood at 2.03 ± 0.09 mmol/L, the “TG” value turned out to be 0.57 ± 0.07 mmol/L and the “ALT (U/L)” value came out at 15.62 ± 9.43 U/L. In addition, in data set [3], the “AST (U/L)” value is on record as 7.78 ± 2.27 U/L, the “Bun” value is listed as 3.56 ± 0.19 mmol/L and the “Cr” value came out at 53.82 ± 6.13 µmol/L. Further, in data set [4], the “CAT (U/mgprot)” value stood at 25.78 ± 2.67 U/mgprot, the “GSH (μmol/gprot)” value came out at 360.02 ± 43.63 μmol/gprot, the “GSH-Px (U/mgprot)” value stood at 562.93 ± 68.91 U/mgprot and the “HL (U/mgprot)” value is on record as 0.37 ± 0.08 U/mgprot. In data set [4], the “LPL (U/mgprot)” value is 0.42 ± 0.06 U/mgprot, the “MDA (nmol/mgprot)” value is on record as 0.95 ± 0.48 nmol/mgprot, the “NEFA (μmol/g prot)” value is given as 106.32 ± 22.95 μmol/g prot and the “TG (mmol/g prot)” value was found to be 0.13 ± 0.02 mmol/g prot.

As to `CN1CCc2cc3c(c4c2C1Cc1ccccc1-4)OCO3` (stereo not drawn) [Remerin], the “OB/% (oral bioavailability)” value in data set [1] (setting [5]) is 40.75%.

Regarding `CCC(C)(C)C(=O)O[C@H]1C[C@@H](C)C=C2C=C[C@H](C)[C@H](CC[C@@H]3C[C@@H](O)CC(=O)O3)[C@H]21` [Simvastatin, simvastatin, reference compound], in data set [2], the “Kidney index (%)” value came to 0.68 ± 0.03 % and the “Liver index (%)” value came out at 4.47 ± 0.36 %. In data set [3], the “LDL-C” value came to 0.62 ± 0.17 mmol/L, the “TC” value is recorded as 2.00 ± 0.19 mmol/L, the “TG” value worked out at 0.47 ± 0.05 mmol/L and the “ALT (U/L)” value is given as 13.74 ± 4.06 U/L. Besides, in data set [3], the “AST (U/L)” value turned out to be 7.57 ± 1.78 U/L, the “Bun” value is reported as 3.98 ± 0.43 mmol/L and the “Cr” value stood at 53.79 ± 7.58 µmol/L. Also, in data set [4], the “CAT (U/mgprot)” value was determined as 29.35 ± 7.00 U/mgprot, the “GSH (μmol/gprot)” value is on record as 341.36 ± 98.66 μmol/gprot, the “GSH-Px (U/mgprot)” value is given as 708.02 ± 47.00 U/mgprot and the “HL (U/mgprot)” value worked out at 0.45 ± 0.11 U/mgprot. Further, in data set [4], the “LPL (U/mgprot)” value is 0.50 ± 0.06 U/mgprot, the “MDA (nmol/mgprot)” value came out at 0.84 ± 0.19 nmol/mgprot, the “NEFA (μmol/g prot)” value is recorded as 103.22 ± 8.89 μmol/g prot and the “TG (mmol/g prot)” value worked out at 0.09 ± 0.01 mmol/g prot.

(−)-catechin: the “OB/% (oral bioavailability)” value in data set [1] (po) is on record as 49.68%.

For `CN1CCc2cc(O)c(O)cc2[C@@H]1Cc1ccc(O)cc1` [(1S)-1-(4-hydroxybenzyl)-2-methyl-3,4-dihydro-1H-isoquinoline-6,7-diol], in data set [1] (setting [5]), the “OB/% (oral bioavailability)” value is recorded as 67.14%.

Regarding `COc1cc2c(cc1O)C(Cc1ccc(O)cc1)NCC2` (stereo not drawn) [Machiline], the “OB/% (oral bioavailability)” value in data set [1] (setting [5]) was 79.64%.

For the compound `COc1ccc(C(=O)N2CCc3cc(OC)c(OC)c4c3C2Cc2ccccc2-4)cc1` (stereo not drawn) [Compound 6e, p-Methoxybenzoylnuciferine], in data set [2], the “Kidney index (%)” value is 0.68 ± 0.05 % and the “Liver index (%)” value worked out at 4.58 ± 0.27 %. In addition, in data set [3], the “LDL-C” value stood at 0.56 ± 0.08 mmol/L, the “TC” value was 1.95 ± 0.13 mmol/L, the “TG” value was 0.55 ± 0.05 mmol/L and the “ALT (U/L)” value came to 15.54 ± 8.69 U/L. Further, in data set [3], the “AST (U/L)” value stood at 7.65 ± 2.26 U/L, the “Bun” value stood at 3.43 ± 0.27 mmol/L and the “Cr” value was 52.90 ± 2.21 µmol/L. In data set [4], the “CAT (U/mgprot)” value was found to be 26.34 ± 4.54 U/mgprot, the “GSH (μmol/gprot)” value was determined as 363.09 ± 71.72 μmol/gprot, the “GSH-Px (U/mgprot)” value is on record as 537.18 ± 34.93 U/mgprot and the “HL (U/mgprot)” value turned out to be 0.37 ± 0.07 U/mgprot. Besides, in data set [4], the “LPL (U/mgprot)” value is reported as 0.28 ± 0.04 U/mgprot, the “MDA (nmol/mgprot)” value is 1.02 ± 0.73 nmol/mgprot, the “NEFA (μmol/g prot)” value is listed as 107.69 ± 6.44 μmol/g prot and the “TG (mmol/g prot)” value is 0.10 ± 0.02 mmol/g prot.

Regarding `Oc1cc(O)c2c(c1)O[C@@H](c1cc(O)c(O)c(O)c1)[C@@H](O)[C@@H]2O` [leucodelphinidin], the “OB/% (oral bioavailability)” value in data set [1] (setting [5]) is 30.02%.

On to `COc1cc2c3c(c1OC)-c1ccccc1CC3N(C(=O)c1ccc(C)cc1)CC2` (stereo not drawn) [Compound 6c, p-Methylbenzoylnuciferine], for which, in data set [2], the “Kidney index (%)” value is listed as 0.68 ± 0.03 % and the “Liver index (%)” value was found to be 4.58 ± 0.26 %. Besides, in data set [3], the “LDL-C” value amounted to 0.54 ± 0.08 mmol/L, the “TC” value is listed as 1.93 ± 0.16 mmol/L, the “TG” value is 0.56 ± 0.07 mmol/L and the “ALT (U/L)” value is 16.44 ± 8.69 U/L. Moreover, in data set [3], the “AST (U/L)” value came out at 7.86 ± 2.24 U/L, the “Bun” value was determined as 3.45 ± 0.51 mmol/L and the “Cr” value was 51.39 ± 5.83 µmol/L. In addition, in data set [4], the “CAT (U/mgprot)” value stood at 27.43 ± 3.14 U/mgprot, the “GSH (μmol/gprot)” value was determined as 374.63 ± 137.14 μmol/gprot, the “GSH-Px (U/mgprot)” value was determined as 567.63 ± 51.57 U/mgprot and the “HL (U/mgprot)” value came out at 0.44 ± 0.78 U/mgprot. Further, in data set [4], the “LPL (U/mgprot)” value worked out at 0.50 ± 0.07 U/mgprot, the “MDA (nmol/mgprot)” value is reported as 0.94 ± 0.38 nmol/mgprot, the “NEFA (μmol/g prot)” value came to 107.69 ± 6.44 μmol/g prot and the “TG (mmol/g prot)” value was found to be 0.10 ± 0.02 mmol/g prot.

Regarding `COc1cc2c(cc1OC)C(Cc1ccc(O)cc1)N(C)CC2` (stereo not drawn) [Armepavine], the “OB/% (oral bioavailability)” value in data set [1] (setting [5]) is listed as 69.31%.

Regarding `Oc1cc(O)c2c(c1)OC(c1ccc(O)c(O)c1)C(O)C2O` (single isomer, unassigned; (+)) [(+)-Leucocyanidin], in data set [1] (setting [5]), the “OB/% (oral bioavailability)” value is 37.61%.

With `COc1cc2c3c(c1OC)-c1ccccc1CC3N(C(C)=O)CC2` (stereo not drawn) [Compound 6f, Acetylnuciferine], in data set [2], the “Kidney index (%)” value is 0.68 ± 0.03 % and the “Liver index (%)” value worked out at 4.58 ± 0.25 %. In data set [3], the “LDL-C” value was 0.69 ± 0.16 mmol/L, the “TC” value came out at 2.02 ± 0.16 mmol/L, the “TG” value amounted to 0.58 ± 0.07 mmol/L and the “ALT (U/L)” value is 16.73 ± 9.74 U/L. Besides, in data set [3], the “AST (U/L)” value turned out to be 7.74 ± 2.22 U/L, the “Bun” value is 3.62 ± 0.15 mmol/L and the “Cr” value was determined as 52.82 ± 4.36 µmol/L. Further, in data set [4], the “CAT (U/mgprot)” value came to 27.42 ± 2.82 U/mgprot, the “GSH (μmol/gprot)” value was 361.04 ± 43.65 μmol/gprot, the “GSH-Px (U/mgprot)” value turned out to be 560.90 ± 62.45 U/mgprot and the “HL (U/mgprot)” value was 0.56 ± 0.06 U/mgprot. Moreover, in data set [4], the “LPL (U/mgprot)” value is recorded as 0.26 ± 0.08 U/mgprot, the “MDA (nmol/mgprot)” value was determined as 0.98 ± 0.56 nmol/mgprot, the “NEFA (μmol/g prot)” value is recorded as 106.32 ± 22.95 μmol/g prot and the “TG (mmol/g prot)” value was determined as 0.13 ± 0.02 mmol/g prot.
